Assay results reported in patent publication US7635779B2, “Oxy substituted flavones as antihyperglycemic and antidyslipidemic agents” (Council of Scientific & Industrial Research, priority 2004, dated 2009).

Columns and labels:
Swiss mice [1] = test: Gross behaviour: autonomic responses; type: in vivo, mouse; conditions: 100 mg/kg p.o.
Experimental: 34 and 49 (100 mg/kg, p.o.) was administered in forenoon. […] Piloerection: Erection of body hairs (+: present or −: absent). • ii). Salivation: Secretion of saliva is observed as dripping of saliva from mouth, which is scored as 1=mild, 2=moderate and 3=severe as compared to control (0=no dripping). • iii). Lachrymation: Secretion and discharge of tears observed as shedding of tears around the lower eyelid, which is scored as 1=mild, 2=moderate and 3=severe as compared to control (0=no shedding). • iv). Palpebral closure: Ptosis (drooping of upper eyelids) present or absent • v). Exopthalmos: Protrusion (bulging) of eye ball; present or absent • vi). Defaecation: scored as 1=mild, 2=moderate and 3=severe as compared to control • vii). Urination: scored as 1=mild, 2=moderate and 3=severe as compared to control Results

Swiss mice [2] = test: Gross behaviour: sensory responses (reflexes, hot plate nociceptive response); type: in vivo, mouse; conditions: 100 mg/kg p.o.; for Nociceptive reaction time MEAN ± SE: hot plate 55° C.
Experimental: • i). Reflexes: Pinna, corneal and righting reflexes were tested [Normal (control), sluggish or absent] • ii). Nociceptive Response: Reaction time to nociceptive response was observed by hot plate analgesia meter (Columbus Instruments,USA). The cut-off period for thermal nociception (55° C.) to mice was 15 sec. Results • i). Reflexes: Corneal, pinna and righting reflexes were intact in 34 and 49 treated mice. • ii).

| SMILES | Effect on autonomic responses (Swiss mice [1]) | Corneal, pinna and righting reflexes (Swiss mice [2]) | Effect on nociceptive reaction time as compared to control (Swiss mice [2]) | Sensory responses (Swiss mice [2]) | Nociceptive reaction time MEAN ± SE (Swiss mice [2]; 30 min) [s] | Nociceptive reaction time MEAN ± SE (Swiss mice [2]; 60 min) [s] | Nociceptive reaction time MEAN ± SE (Swiss mice [2]; 90 min) [s] | Nociceptive reaction time MEAN ± SE (Swiss mice [2]; 120 min) [s] | Nociceptive reaction time MEAN ± SE (Swiss mice [2]; Pre-tt (0)) [s] |
| --- | --- | --- | --- | --- | --- | --- | --- | --- | --- |
| CC(C)NCC(O)COc1ccc2c(=O)cc(-c3cc(O)cc(O)c3)oc2c1 (stereo not drawn) [Compound 49, 3′,5′-Dihydroxy-7-(2-hydroxy-3-iso-propylamino-propoxy)-flavone] | did not show any significant effect | intact | no significant effect | not affected | 4.66 ± 0.6 | 4.10 ± 0.2 | 3.66 ± 0.3 | 3.45 ± 0.1 | 4.61 ± 0.2 |
| CC(C)(C)NCC(O)COc1ccc2c(=O)cc(-c3cc(OCc4ccccc4)cc(OCc4ccccc4)c3)oc2c1 (stereo not drawn) [Compound 34, 7-(3-tert-Butylamino-2-hydroxy-propoxy)-3′,5′-dibenzyloxy-flavone] | did not show any significant effect | intact | no significant effect | not affected | 4.84 ± 0.3 | 4.30 ± 0.2 | 3.52 ± 0.1 | 3.08 ± 0.2 | 3.52 ± 0.2 |
